Read-outs that look alike come from different tables or passages of the source. *1 amine or outer side, *2 acyl side, *3 side chain or, on linkers, in order; H or OH if unused. Bridges are numbered along the chain shown (N, C = ends). Where no end group is shown, it is not given here. [ ]: non-standard residue; d: D form. The star is where a group is joined. (miniPEG)2 = linker of two miniPEG units, each HN-CH2CH2-O-CH2CH2-O-CH2-C(=O), O=C(COCCOCCN[*:1])NCCOCCOCC(=O)[*:2]; Myristoyl = CCCCCCCCCCCCCC(=O)*; Aun = NCCCCCCCCCCC(=O)O; Ahx = NCCCCCC(=O)O
Assays:
[1] = system: Staphylococcus aureus strain MZ100; test: in vitro infection assay on titanium beads, colony counts; type: cell-based; conditions: peptide 5 μM + vancomycin 100 μM
Experimental: To illustrate the antibacterial activity of the peptide compositions, an in vitro infection assay was performed. Briefly, a surface material was contacted with one of the peptide compositions such that the peptide binds to the surface material. The peptide composition can have glycopeptide antibiotic already bound thereto at the time of contacting the peptide with the surface material, or the glycopeptide antibiotic can be contacted with the peptide in a step subsequent to binding the peptide composition to the surface material. The surface material was washed to remove unbound glycopeptide antibiotic, and then contacted with bacterial cells (added from a culture in log phase growth) and incubated to promote bacterial growth. The surface material was washed, and any bacterial cells colonizing the surface material removed and plated to assess bacterial growth.
In one example, Staphylococcus aureus strain MZ100 was used as the representative bacterial cells. First, as a representative surface material, titanium beads were sterilized in acetone in a sonication bath, and then air dried in a sterile hood. The beads were individually placed in sterilized microfuge tubes (one bead per tube). […] The next day, the plates were examined for bacterial growth, and the number of bacterial colonies was quantified per plate.

[2] = system: S. aureus MZ100; test: in vitro infection model on titanium pins, colony counts; type: cell-based; conditions: composition 5 μM + vancomycin 100 μM, two hours incubation
Experimental: Acetone-sterilized titanium pins (1 mm diameter, 12 mm long) were first washed in PBS. These pins were then incubated in a solution (PBS) containing the respective composition (5 μM)+vancomycin (100 μM) for 15 minutes at room temperature, with intermittent inversion for coating. Each pin was then washed extensively in PBS and placed in 30 μL of S. aureus MZ100 cultured at 10^6 colony forming units (cfu) per mL, according to methods above. The coated pins were then inoculated in 30 mm lengths of 1.5 mm diameter silicone tubing, with closed ends. After incubation for two hours with shaking, the pin was placed in a new tube containing 1 mL PBS. After inverting several times, PBS was aspirated, and replaced with a fresh 1 mL of PBS. The pins were then sonicated at 20 kHz for four cycles of 15 seconds each. Supernatants (100 μL) and dilutions were plated on trypticase soy agar (TSA) plates, incubated for 24 hours at 37° C., and colonies were counted. An assay control included the same steps of the infection model, except that the pin is uncoated pin (i.e., without composition according to the presently disclosed subject matter bound thereto) (“Control”). As representative examples, compositions comprising the amino acid sequences of SEQ ID NOs: 125 and 126 were tested for antimicrobial activity using the in vitro infection model (see, Table 7, “A” & “B”, respectively).

[3] = system: S. aureus; test: bacterial growth with loaded titanium beads, optical density at 600 nm; type: cell-based; conditions: peptide 10 μM + vancomycin 200 μM, 37° C. for 18 hours
Experimental: In another experiment, antimicrobial activity of the peptide compositions was measured as follows. Titanium beads were placed into wells of a 96 well plate. To each well was added a 10 μM of peptide composition comprising at least one surface-binding peptide coupled to at least one glycopeptide antibiotic binding peptide and vancomycin at 200 μM. The appropriate negative controls were also included. The plate was incubated for 1 hour at 20° C., and then the wells and beads were washed 4 times with buffer. After washing, the beads were transferred to the well of a plate containing S. aureus in log phase growth and incubated at 37° C. for 18 hours. Bacterial growth was assessed by reading optical density at 600 nm.

[4] = binding assay for gentamycin, similar format as for vancomycin; conditions: aminoglycoside antibiotic
[5] = binding assay: biotinylated synthetic peptide on streptavidin plate, titrated with biotinylated glycopeptide antibiotic
Experimental: A typical binding assay for glycopeptide antibiotic was performed according to the following procedure. Briefly, synthetic peptides comprising an amino acid sequence to be characterized for binding were biotinylated to facilitate immobilization on streptavidin-coated 96-well plates. The microtiter plates were coated with streptavidin by adding 50 μl of a 10 μg/ml streptavidin solution in 0.1M NaHCO3, and incubating the plates for at least 3 hours. The plate wells were blocked by adding 150 μl of a 1% BSA solution in 0.1 NaHCO3 with incubation for at least 2 hours, and the plates were stored at 4° C. until needed. Before use, the streptavidin plates were washed extensively in buffer-T. Added per well was peptide (100 μl 0.1 μM peptide in buffer-T), and then incubated for 30 minutes at room temperature with shaking. 200 μl of 0.5 mM biotin in buffer-T was added to block the remaining streptavidin sites, and plates were incubated for 15 minutes at room temperature. Plates were then washed with buffer-T to remove the excess biotin and peptide. Serial dilutions of biotinylated glycopeptide antibiotic in buffer-T were added (100 μl) to each well, representing a range of concentrations between 100 pM and 100 μM. Plates were incubated for 30 minutes at room temperature with shaking prior to washing several times with buffer-T. Glycopeptide antibiotic was then detected by adding 100 μl of a diluted streptavidin-alkaline phosphatase conjugate to each well and incubated at room temperature for 30 minutes. Excess conjugate was removed by repeated washes with buffer-T, and the amount of alkaline phosphatase remaining in the well was detected using a pNPP (para-nitrophenylphosphate) colorimetric enzymatic assay. The relative amount of glycopeptide antibiotic captured by the peptides was determined by measuring the absorbance at 405 nm of the colored product of the alkaline phosphatase reaction. The EC50 was determined for each peptide relative to the binding affinity for the glycopeptide antibiotic used in the assay, as shown in Table 1 (with vancomycin as a representative glycopeptide antibiotic).
A typical binding assay for glycopeptide antibiotic was performed according to the following procedure. The concentrations of the alkaline-phosphatase linked variant peptides were normalized to equal levels based on the alkaline-phosphatase activity as determined in a kinetic assay with the alkaline-phosphatase specific chromogenic substrate p-nitrophenyl phosphate (p-NPP). A streptavidin coated microtiter plate was coated with biotinylated vancomycin. Serial dilutions of normalized alkaline-phosphatase linked peptides were allowed to bind to the immobilized vancomycin and detected by addition of the alkaline-phosphatase specific chromogenic substrate p-NPP. Relative affinity for peptide binding to the immobilized vancomycin was determined by measuring the absorbance at 405 nm of the colored product of the alkaline phosphatase reaction. […] EC50 values for the synthetic peptides binding to vancomycin were determined as described in Example 1 and are shown in Table 3. Preferred are peptides that bind to glycopeptide antibiotic with binding affinity of EC50 of less than or equal to about 1 μM, and more preferably, in the nanomolar range (e.g., <0.1 μM).

[6] = system: binding between vancomycin and a peptide comprising SEQ ID NO:1; test: inhibition by Lys-D-Ala-D-Ala of binding between vancomycin and peptide SEQ ID NO:1
Experimental: As an example, illustrated is the inhibition by Lys-D-Ala-D-Ala of specific binding between vancomycin and a peptide comprising the amino acid sequence of SEQ ID NO:1. To the wells of a 96 well plate coated with streptavidin was added 100 μl of a 0.2 μM solution of biotinylated peptide in buffer-T. After incubation, the wells were blocked by adding 200 μl of a 0.5 mM solution of biotin in buffer-T. The plates were then washed three times with buffer-T. Serial dilutions of Lys-D-Ala-D-Ala were prepared, and added individually to the wells such that Lys-D-Ala-D-Ala ranged in a final concentration of from about 1 μM to about 200 μM (in a volume of 35 μl). Also added to each well was 35 μl of biotinylated vancomycin (20 nM final concentration), and the plate was incubated at 30 minutes for room temperature. The wells were then washed three times with buffer-T, followed by the addition of 100 μl of streptavidin-alkaline phosphatase conjugate (1 mg/ml diluted 1:500 in buffer-T). Following a 30 minute incubation, the wells were washed five times with buffer-T. Added to each well was 100 μl of pNPP, followed by colorimetric detection after 12 minutes at an absorbance of 405 nm.

[7] = target: vancomycin; test: competition on plates: immobilised biotinylated SEQ ID NO: 1 peptide, 20 nM biotinylated vancomycin, Lys-D-Ala-D-Ala titrated
[8] = target: vancomycin; test: retention of BODIPY-FL vancomycin on titanium beads with the peptide composition, followed from 45 minutes to 100 hours
[9] = target: vancomycin; test: titanium beads with 10 µM peptide composition and 200 µM vancomycin, washed, vancomycin eluted with HCl and measured by HPLC

For NHTISKNHKKKNKNSNKTR [SEQ ID NO: 119], which “# of bacterial colonies” value ([1]; 2 hour incubation) is on record?
The value was 0.

With “Myr-Ahx-SSCLIDIYGVCHNFDAY-(miniPEG)2-HKKNNPKKKNKTRGSSK ({Myristoyl-Ahx}-SSCLIDIYGVCHNFDAY[miniPEG][miniPEG]HKKNNPKKKNKTRGSSK; disulfide 3-11 (inferred)) [SEQ ID NO: 125]” as the molecule, how does the “# of bacterial colonies (CFU)” value [2] read?
The value was 100 CFU.

With “130 (SSCLIDIYGVCHNFDAY[(miniPEG)2]HKKNNPKKKNKTRGSSK; disulfide 3-11 (inferred)) [compound 130]” as the molecule, how does the “inhibition of bacterial growth (optical density at 600 nm)” value (shortened to “inhibition of bacterial growth”) [3] read?
The value was “complete inhibition”.

For “120 (H-SSSCLIDMYGVCHNFDGAYDSSRG[(miniPEG)2]SSHRTNHKKNNPKKKNKTRGSSGK-NH2; disulfide 4-12) [compound 120]”, which “inhibition of bacterial growth” value [3] is on record?
The value was “complete inhibition”.

For “AUD-AUD-AUD-SSCLIDIYGVCHNFDAY-(miniPEG)2-HKKNNPKKKNKTRGSSK ([Aun][Aun][Aun]SSCLIDIYGVCHNFDAY[miniPEG][miniPEG]HKKNNPKKKNKTRGSSK; disulfide 6-14 (inferred)) [SEQ ID NO: 126]”, which “# of bacterial colonies (CFU)” value [2] is on record?
The value was less than 10 CFU.

With CLIDMYGVCHNFDGAYDS [compound 1] as the molecule, how does the “binding affinity for gentamycin” value [4] read?
Its value is “lacked significant binding affinity”.

And the EC50 ([5]; synthetic peptides binding to vancomycin, read-out: EC50, binding to glycopeptide antibiotic)?
The EC50 was less than 0.1 µM.

What about the EC50 ([5]; synthetic peptides, biotinylated vancomycin, read-out: EC50 (μM) for vancomycin binding) of the same molecule?
The EC50 was 0.1 µM.

For Lys-D-Ala-D-Ala (Lys-[dA]-[dA]), which “inhibition of binding between vancomycin and peptide” value ([6]; Lys-D-Ala-D-Ala between 100 μM to 200 μM) is on record?
Its value is roughly 100%.

What about the IC50 ([6]; biotinylated vancomycin 20 nM, read-out: concentration needed to inhibit about 50% of the binding between vancomycin and peptide) of the same molecule?
Its IC50 is roughly 10 µM.

With Lys-D-Ala-D-Ala (peptide) as the molecule, how does the IC50 [7] read?
Its IC50 is 10 µM.

And the percent inhibition at 100 µM to 200 µM Lys-D-Ala-D-Ala [7]?
The percent inhibition at 100 µM to 200 µM Lys-D-Ala-D-Ala was 100%.

Which “inhibition of bacterial growth” value [3] does the source give for “131 (SSCLIDIYGVCHNFDAY[(miniPEG)2]SSHRTNHKKNNPKKKNKTRGSSGK; disulfide 3-11 (inferred)) [compound 131]” here?
The value was “complete inhibition”.

With “119 (NHTISKNHKKKNKNSNKTR) [compound 119]” as the molecule, how does the “bacterial growth on the plates” value [1] read?
The value was “completely inhibited”.

Which percent of BODIPY-FL vancomycin remaining on the metal surface after 3 hours [8] does the source give for H-SSSCLIDMYGVCHNFDGAYDSSRG[(miniPEG)2]SSHRTNHKKNNPKKKNKTRGSSGK-NH2 (disulfide 4-12 (inferred)) [peptide composition comprising SEQ ID NO: 120] here?
Its percent of BODIPY-FL vancomycin remaining on the metal surface after 3 hours is 50%.

And the Picomoles vancomycin/cm^2 (picomoles/cm^2) [9]?
Its Picomoles vancomycin/cm^2 (picomoles/cm^2) is 61.

— patent publication US20100098737A1, “METHODS AND COMPOSITIONS FOR DELIVERY OF GLYCOPEPTIDE ANTIBIOTICS TO MEDICAL DEVICE SURFACES” (priority 2008, published 2010)
